Test results from patent publication US10689362B2, “Quinoxaline compounds as type III receptor tyrosine kinase inhibitors” (Development Center for Biotechnology, priority 2016, dated 2020).

Legend:
[1] = system: MV4-11 human acute myeloid leukemia cell with FLT3-ITD mutation; experiment: MV4-11 cell proliferation assay (CellTiter-96); format: cell-based; conditions: Cytotoxicity, MV4-11 cells, 72 hours
Protocol: (§1) Inhibition of cell growth by compounds was measured using CellTiter™-96 assay. The cytotoxicity of compounds was evaluated in CSF-1-dependent M-NFS-60 mouse myeloid leukemia cell, FLT3 signal addicted MV4-11 human acute myeloid leukemia cell with FLT3-ITD mutation, c-KIT signal addicted Kasumi-1 human acute myeloid leukemia cell with c-KIT N822K activating mutation, and THP-1 human acute monocytic leukemia cell harboring NRAS G12D mutation.
(§2) The compounds disclosed herein were tested in MV4-11 cell proliferation assay to determine their cellular potency against FLT3 kinase. MV4-11 human acute myeloid leukemia cells harbor ligand-independent FLT3-ITD activating mutation, which render its proliferation FLT3-ITD dependent. Inhibition of FLT3 kinase activity will cause reduced growth and/or cell death. […] Cells were allowed to expand until reaching saturation at which point they were subcultured or harvested for assay use.
(§3) M-NFS-60, Kasumi-1, MV4-11 and THP-1 cells were seeded into 96-well plates at 2000, 64000, 6500, and 5000 cells/well, respectively, and incubated at 37° C., 5% CO2 overnight. Then, these seeded cells were treated with increasing concentrations of the test compounds and incubated for another 72 hours. At the end of the incubation, CellTiter96® AQueous One Solution Reagent (Promega) was added and incubated for 4 hours. Cell viability was determined by measuring absorbance at 490 nm using EMax® microplate reader (Molecular Devices).

[2] = target: CSF-1R kinase (Homo sapiens (Human), UniProt P07333); experiment: CSF-1R kinase assay (AlphaScreen); format: biochemical
Protocol: Inhibition of CSF-1R kinase activity by a test compound disclosed herein was estimated by AlphaScreen (PerkinElmer). […] Reactions were incubated at 30° C. for 45 min and stopped by adding 5 μL of 50 mM EDTA. Analysis of resulting product using an AlphaScreen kit, and counted with Enspire Alpha (PerkinElmer). […] The IC50 values of quinoxaline compounds of this invention against CSF-1R kinase were determined using the GraphPad Prism 5 software.

[3] = target: c-KIT kinase (Homo sapiens (Human), UniProt P10721); experiment: c-KIT kinase assay (radiometric); format: biochemical
Protocol: (§4) Inhibition of c-KIT kinase activity by a test compound disclosed herein was estimated by radiometric assay. Standard assay conditions were 20 ng of recombinant c-Kit (SignalChem) with 2 μg of substrate Poly-(Glu 4:Tyr 1) (sigma) in the assay buffer in kinase reaction buffer (10 mM MOPS pH 7.0, 0.21 mM EDTA, 0.5% glycerol, 0.001% Brij-35, 0.01 2-mercaptoehtanol, 1 mg/ml BSA, 10 mM MgCl2, 10 mM MnCl2, 10 μM ATP, 0.1 μCi per well [^33P]-ATP, in the presence of test compound (diluted in final concentration of 4% DMSO) or DMSO control, with a final volume of 25 μl for 60 minutes at 30° C. The reaction was stopped by adding 5 μl of 3% phosphoric acid solution. Total reaction solution was then harvested onto a filter plate (UniFilter-96 GF/B, PerkinElmer), and washed 20 times for 5 min with dH2O. 30 μl of MicroScint™-20 Cocktail (PerkinElmer) was added to dried plate. The plate was sealed and counted using a TopCount scintillation detector (PerkinElmer). […] The IC50 values of quinoxaline compounds of this invention against c-KIT kinase were determined using the GraphPad Prism 5 software.
(§5) The IC50 values for selected quinoxaline compounds of this invention against CSF-1R, c-KIT, FLT3, and PDGFRβ are summarized in Table 3.

[4] = system: CSF-1-dependent M-NFS-60 mouse myeloid leukemia cell; experiment: M-NFS-60 cell proliferation assay (CellTiter-96); format: cell-based; conditions: Cytotoxicity, M-NFS-60 cells, 72 hours
Protocol: as §1
The compounds disclosed herein were tested in M-NFS-60 cell proliferation assay to determine their cellular potency against CSF-1R. […] Inhibition of CSF-1R kinase activity will cause reduced growth and/or cell death. […] Cells were allowed to expand until reaching saturation at which point they were subcultured or harvested for assay use.
as §3

[5] = target: FLT3 kinase (Homo sapiens (Human), UniProt P36888); experiment: FLT3 kinase assay (radiometric); format: biochemical
Protocol: as §4, with “of FLT3” for “of c-KIT”, “were 5” for “were 20”, “recombinant FLT3 (Thermo Fisher)” for “recombinant c-Kit (SignalChem)”, “BSA, MgCl2” for “BSA,”, “10 mM,” for “10 mM MgCl2, 10 mM MnCl2,”, “against FLT3” for “against c-KIT”
as §5

[6] = system: Kasumi-1 human acute myeloid leukemia cell with c-KIT N822K activating mutation; experiment: Kasumi-1 cell proliferation assay (CellTiter-96); format: cell-based; conditions: Cytotoxicity, Kasumi-1 cells, 72 hours
Protocol: as §1
as §2, with “Kasumi” for “MV4-11”, “c-KIT” for “FLT3”, “N822K c-KIT” for “FLT3-ITD”, “thus the cell” for “which render its”, “relied on c-KIT signal.” for “FLT3-ITD dependent.”
as §3

[7] = target: PDGFRβ kinase (Homo sapiens (Human), UniProt P09619); experiment: PDGFRβ kinase assay (radiometric); format: biochemical; conditions: bound
Protocol: as §4, with “of PDGFRβ” for “of c-KIT”, “were 10” for “were 20”, “recombinant PDGFRβ” for “recombinant c-Kit”, “well [^33P]-ATP),” for “well [^33P]-ATP,”, “against PDGFRβ” for “against c-KIT”
as §5

[8] = system: THP-1 human acute monocytic leukemia cell harboring NRAS G12D mutation; experiment: THP-1 cell proliferation assay (counter screen, CellTiter-96); format: cell-based; conditions: Cytotoxicity, THP-1 cells (counter screen), 72 hours
Protocol: as §1
THP-1 human acute monocytic leukemia cells harbor NRAS G12D mutation, which renders cell proliferate independently of class III RTKs signal. […] Cells were allowed to expand until reaching saturation at which point they were subcultured or harvested for assay use.
as §3

PDGFRβ kinase, sequence (P09619 33-1106): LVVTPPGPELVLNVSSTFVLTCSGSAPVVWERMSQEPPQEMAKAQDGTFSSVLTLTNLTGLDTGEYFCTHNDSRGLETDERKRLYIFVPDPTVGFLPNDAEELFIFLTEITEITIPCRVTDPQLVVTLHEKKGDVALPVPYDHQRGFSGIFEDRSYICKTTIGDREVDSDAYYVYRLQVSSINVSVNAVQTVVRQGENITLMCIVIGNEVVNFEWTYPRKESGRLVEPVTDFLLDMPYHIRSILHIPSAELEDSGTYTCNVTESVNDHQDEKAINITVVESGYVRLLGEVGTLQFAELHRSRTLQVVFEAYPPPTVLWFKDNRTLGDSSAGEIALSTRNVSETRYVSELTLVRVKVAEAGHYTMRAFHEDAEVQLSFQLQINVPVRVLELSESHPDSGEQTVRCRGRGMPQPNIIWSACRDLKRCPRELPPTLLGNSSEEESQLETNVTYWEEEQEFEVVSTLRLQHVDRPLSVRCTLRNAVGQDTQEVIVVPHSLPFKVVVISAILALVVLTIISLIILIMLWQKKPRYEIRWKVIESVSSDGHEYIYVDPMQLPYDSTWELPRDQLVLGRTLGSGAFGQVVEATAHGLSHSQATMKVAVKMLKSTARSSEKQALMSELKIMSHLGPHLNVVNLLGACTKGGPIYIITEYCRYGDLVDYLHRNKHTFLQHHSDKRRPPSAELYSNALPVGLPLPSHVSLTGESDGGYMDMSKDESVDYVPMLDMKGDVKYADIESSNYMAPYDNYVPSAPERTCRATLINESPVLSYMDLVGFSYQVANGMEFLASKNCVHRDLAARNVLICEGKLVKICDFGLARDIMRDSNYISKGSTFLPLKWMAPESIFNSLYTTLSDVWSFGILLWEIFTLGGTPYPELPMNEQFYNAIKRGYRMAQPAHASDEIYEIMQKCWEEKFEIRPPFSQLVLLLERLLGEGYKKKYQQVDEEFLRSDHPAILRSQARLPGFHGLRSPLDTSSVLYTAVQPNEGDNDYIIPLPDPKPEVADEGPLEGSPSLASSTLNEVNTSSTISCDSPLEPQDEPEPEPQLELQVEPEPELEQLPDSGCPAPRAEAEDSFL
FLT3 kinase, sequence (P36888 27-993): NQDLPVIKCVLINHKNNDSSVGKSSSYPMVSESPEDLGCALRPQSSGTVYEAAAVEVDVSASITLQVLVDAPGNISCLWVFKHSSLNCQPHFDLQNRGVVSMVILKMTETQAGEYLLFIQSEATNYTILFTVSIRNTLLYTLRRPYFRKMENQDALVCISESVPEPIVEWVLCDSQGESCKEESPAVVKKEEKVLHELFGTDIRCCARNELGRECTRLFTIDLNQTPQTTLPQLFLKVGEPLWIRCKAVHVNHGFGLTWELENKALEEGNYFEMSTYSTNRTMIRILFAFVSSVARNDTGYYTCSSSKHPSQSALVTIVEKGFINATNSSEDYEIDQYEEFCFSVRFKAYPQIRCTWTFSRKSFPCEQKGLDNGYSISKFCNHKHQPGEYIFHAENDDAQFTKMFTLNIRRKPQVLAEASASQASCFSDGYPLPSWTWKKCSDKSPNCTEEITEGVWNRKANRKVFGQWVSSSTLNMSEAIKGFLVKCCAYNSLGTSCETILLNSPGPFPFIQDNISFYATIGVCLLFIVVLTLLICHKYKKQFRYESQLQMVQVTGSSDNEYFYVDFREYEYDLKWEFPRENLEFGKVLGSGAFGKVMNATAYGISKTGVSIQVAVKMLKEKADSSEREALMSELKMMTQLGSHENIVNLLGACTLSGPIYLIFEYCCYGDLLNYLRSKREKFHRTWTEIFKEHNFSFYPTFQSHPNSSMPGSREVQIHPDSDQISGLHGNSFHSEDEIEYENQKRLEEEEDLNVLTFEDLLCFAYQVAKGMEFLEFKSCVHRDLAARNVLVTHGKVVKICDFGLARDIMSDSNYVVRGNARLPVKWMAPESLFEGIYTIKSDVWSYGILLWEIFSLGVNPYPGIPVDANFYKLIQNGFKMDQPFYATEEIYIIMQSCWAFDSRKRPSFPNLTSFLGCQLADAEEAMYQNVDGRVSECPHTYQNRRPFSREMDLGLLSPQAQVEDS
CSF-1R kinase, sequence (P07333 20-972): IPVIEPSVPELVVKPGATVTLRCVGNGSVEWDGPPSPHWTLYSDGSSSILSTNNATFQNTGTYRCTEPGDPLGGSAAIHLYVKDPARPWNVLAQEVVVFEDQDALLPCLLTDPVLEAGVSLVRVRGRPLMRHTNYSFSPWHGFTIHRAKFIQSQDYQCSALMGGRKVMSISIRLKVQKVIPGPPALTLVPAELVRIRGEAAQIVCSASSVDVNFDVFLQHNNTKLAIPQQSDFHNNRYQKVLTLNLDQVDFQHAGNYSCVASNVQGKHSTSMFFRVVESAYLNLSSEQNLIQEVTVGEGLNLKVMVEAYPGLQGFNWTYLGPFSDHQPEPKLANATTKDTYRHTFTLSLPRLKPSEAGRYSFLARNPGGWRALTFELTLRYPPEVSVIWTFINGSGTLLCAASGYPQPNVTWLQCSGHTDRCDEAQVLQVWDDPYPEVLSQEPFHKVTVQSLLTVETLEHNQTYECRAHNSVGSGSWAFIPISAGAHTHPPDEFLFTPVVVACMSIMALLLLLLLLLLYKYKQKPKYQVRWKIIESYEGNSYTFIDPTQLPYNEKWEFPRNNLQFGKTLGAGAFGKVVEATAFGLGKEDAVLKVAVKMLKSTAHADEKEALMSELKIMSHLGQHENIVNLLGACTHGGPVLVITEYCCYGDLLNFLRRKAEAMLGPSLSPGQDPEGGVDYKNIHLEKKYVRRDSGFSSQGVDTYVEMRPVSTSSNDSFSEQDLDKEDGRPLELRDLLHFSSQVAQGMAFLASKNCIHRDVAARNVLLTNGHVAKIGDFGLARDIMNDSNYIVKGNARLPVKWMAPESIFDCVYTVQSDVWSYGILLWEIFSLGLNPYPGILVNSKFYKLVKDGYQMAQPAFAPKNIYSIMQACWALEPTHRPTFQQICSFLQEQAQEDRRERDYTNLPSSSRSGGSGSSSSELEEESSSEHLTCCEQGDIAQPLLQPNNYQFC
c-KIT kinase, sequence (P10721 26-976): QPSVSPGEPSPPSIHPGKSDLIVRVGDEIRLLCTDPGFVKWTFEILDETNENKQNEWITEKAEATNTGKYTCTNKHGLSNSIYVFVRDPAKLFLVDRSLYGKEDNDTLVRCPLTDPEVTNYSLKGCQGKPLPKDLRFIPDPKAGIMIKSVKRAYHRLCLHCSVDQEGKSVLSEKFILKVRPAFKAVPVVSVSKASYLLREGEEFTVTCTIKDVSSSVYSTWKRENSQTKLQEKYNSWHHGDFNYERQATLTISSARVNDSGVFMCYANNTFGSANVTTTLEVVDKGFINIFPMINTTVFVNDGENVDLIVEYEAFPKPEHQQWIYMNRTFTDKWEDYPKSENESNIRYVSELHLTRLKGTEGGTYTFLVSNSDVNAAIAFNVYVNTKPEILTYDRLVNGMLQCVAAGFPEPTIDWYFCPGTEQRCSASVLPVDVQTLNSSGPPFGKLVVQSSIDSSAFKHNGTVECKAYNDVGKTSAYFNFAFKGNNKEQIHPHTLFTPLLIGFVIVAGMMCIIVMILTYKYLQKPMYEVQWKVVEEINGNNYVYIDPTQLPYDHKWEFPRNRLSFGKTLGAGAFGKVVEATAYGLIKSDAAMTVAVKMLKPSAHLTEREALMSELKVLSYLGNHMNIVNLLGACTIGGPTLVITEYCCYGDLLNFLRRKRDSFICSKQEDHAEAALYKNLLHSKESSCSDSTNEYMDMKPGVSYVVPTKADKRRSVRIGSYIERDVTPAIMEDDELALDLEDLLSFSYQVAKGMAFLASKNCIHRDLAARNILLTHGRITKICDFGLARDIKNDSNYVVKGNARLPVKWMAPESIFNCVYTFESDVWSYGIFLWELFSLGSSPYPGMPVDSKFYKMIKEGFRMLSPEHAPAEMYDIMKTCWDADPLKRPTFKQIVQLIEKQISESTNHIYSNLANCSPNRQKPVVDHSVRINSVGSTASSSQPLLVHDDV

Compound | IC50 [1] | IC50 ([2]; bound) | IC50 ([3]; class symbol) | IC50 [4] | IC50 ([5]; bound) | IC50 [6] | IC50 [7] | IC50 [8] | IC50 ([2]; class symbol) | IC50 ([3]; bound) | IC50 ([5]; class symbol)
COc1cc(Nc2ccc3ncc(N4CCOCC4)nc3c2C#N)ccc1OCC1CCCO1 (stereo not drawn) [Example 123, 6-((3-methoxy-4-((tetrahydrofuran-2-yl)methoxy)phenyl)amino)-3-morpholinoquinoxaline-5-carbonitrile] | 1000 to 10000 nM | > 1000 nM | 300 to 1000 nM | > 10000 nM | > 1000 nM | 1000 to 10000 nM | > 1000 nM | > 10000 nM | – | – | –
COc1cc(Nc2ccc3ncc(N4CCOCC4)nc3c2C#N)ccc1OCc1ccncc1 [Example 46, 6-((3-methoxy-4-(pyridin-4-ylmethoxy)phenyl)amino)-3-morpholinoquinoxaline-5-carbonitrile] | 1000 to 10000 nM | – | 100 to 300 nM | 1000 to 10000 nM | > 1000 nM | 1000 to 10000 nM | > 1000 nM | > 10000 nM | 300 to 1000 nM | – | –
COc1ccc(CNc2ccc(Nc3ccc4ncc(N5CCOCC5)nc4c3C#N)cc2OC)cc1 [Example 39, 6-((3-methoxy-4-((4-methoxybenzyl)amino)phenyl)amino)-3-morpholinoquinoxaline-5-carbonitrile] | 1000 to 10000 nM | > 1000 nM | 100 to 300 nM | > 10000 nM | > 1000 nM | 300 to 1000 nM | > 1000 nM | > 10000 nM | – | – | –
CCOc1ccc(COc2ccc(Nc3ccc4ncc(OC)nc4c3C#N)cc2OC)cc1 [Example 20, 6-((4-((4-ethoxybenzyl)oxy)-3-methoxyphenyl)amino)-3-methoxyquinoxaline-5-carbonitrile] | > 10000 nM | – | < 100 nM | > 10000 nM | > 1000 nM | 1000 to 10000 nM | > 1000 nM | > 10000 nM | 300 to 1000 nM | – | –
C#CCOc1ccc(Nc2ccc3ncc(N4CCOCC4)nc3c2C#N)cc1OC [Example 92, 6-((3-methoxy-4-(prop-2-yn-1-yloxy)phenyl)amino)-3-morpholinoquinoxaline-5-carbonitrile] | 1000 to 10000 nM | – | 100 to 300 nM | 1000 to 10000 nM | > 1000 nM | 300 to 1000 nM | > 1000 nM | > 10000 nM | 300 to 1000 nM | – | –
COc1ccc(COc2ccc(Nc3ccc4ncc(OC(C)C)nc4c3C#N)cc2OC)cn1 [Example 119, 3-isopropoxy-6-((3-methoxy-4-((6-methoxypyridin-3-yl)methoxy)phenyl)amino)quinoxaline-5-carbonitrile] | 1000 to 10000 nM | – | – | 1000 to 10000 nM | – | > 10000 nM | > 1000 nM | > 10000 nM | 100 to 300 nM | > 1000 nM | 100 to 300 nM
COc1cc(Nc2ccc3ncc(N4CCOCC4)nc3c2C#N)ccc1OCc1ccoc1 [Example 121, 6-((4-(furan-3-ylmethoxy)-3-methoxyphenyl)amino)-3-morpholinoquinoxaline-5-carbonitrile] | 1000 to 10000 nM | – | 100 to 300 nM | 1000 to 10000 nM | > 1000 nM | 300 to 1000 nM | > 1000 nM | > 10000 nM | 100 to 300 nM | – | –
COc1cnc2ccc(Nc3ccc(NCc4ccc(C(F)(F)F)cc4)nc3)c(C#N)c2n1 [Example 4, 3-methoxy-6-((6-((4-(trifluoromethyl)benzyl)amino)pyridin-3-yl)amino)quinoxaline-5-carbonitrile] | 1000 to 10000 nM | > 1000 nM | 300 to 1000 nM | > 10000 nM | > 1000 nM | 1000 to 10000 nM | > 1000 nM | > 10000 nM | – | – | –
COc1cc(Nc2ccc3ncc(N4CCOCC4)nc3c2C#N)ccc1OCC1CC1 [Example 36, 6-((4-(cyclopropylmethoxy)-3-methoxyphenyl)amino)-3-morpholinoquinoxaline-5-carbonitrile] | 1000 to 10000 nM | – | 100 to 300 nM | > 10000 nM | > 1000 nM | 300 to 1000 nM | > 1000 nM | > 10000 nM | 300 to 1000 nM | – | –
